Test results reported in US9445601B2, “Fungicide active substance combinations” (Bayer Intellectual Property GmbH, priority 1997, dated 2016).
Read-outs that look alike come from different tables or passages of the source.

What was measured:
Type in all cases: in vivo
[1] = test system: Sphaerotheca fuliginea; assay: Sphaerotheca test (cucumber)/protective; settings: for pest or weed control at 2.5 g/ha: application rate 2.5 g/ha
Procedure: Sphaerotheca Test (Cucumber)/Protective
(§1) • Solvent: 47 parts by weight of acetone • Emulsifier: 3 parts by weight of alkylaryl polyglycol ether
After the spray coating has dried on, the plants are inoculated with an aqueous spore suspension of Sphaerotheca fuliginea. The plants are then placed in a greenhouse at about 23° C. and a relative atmospheric humidity of about 70%.
Evaluation is carried out 10 days after the inoculation.

[2] = test system: Erysiphe graminis f. sp. tritici; assay: Erysiphe test (wheat)/curative; settings: curative, single active compound, 7 days after inoculation
Procedure: Erysiphe Test (Wheat)/Curative
(§2) • Solvent: 10 parts by weight of N-methyl-pyrrolidone • Emulsifier: 0.6 parts by weight of alkylaryl polyglycol ether
(§3) To produce a suitable preparation of active compound, 1 part by weight of active compound or active compound combination is mixed with the stated amounts of solvent and emulsifier, and the concentrate is diluted with water to the desired concentration, or a commercial formulation of active compound or active compound combination is diluted with water to the desired concentration.
To test for curative activity, young plants are dusted with spores of Erysiphe graminis f. sp. tritici. 48 hours after the inoculation, the plants are sprayed with the active compound preparation at the stated application rate.
(§4) The plants are then placed in a greenhouse at a temperature of about 20° C. and a relative atmospheric humidity of about 80% to promote the development of mildew pustules.
(§5) Evaluation is carried out 7 days after the inoculation. 0% means an efficacy which corresponds to that of the control, whereas an efficacy of 100% means that no infection is observed.

[3] = test system: Fusarium culmorum; assay: Fusarium culmorum test (wheat)/seed treatment; settings: dry seed dressing, single active compound, application rate 75 g/ha as printed, about 3 weeks after sowing
Procedure: Fusarium culmorum Test (Wheat)/Seed Treatment
(§6) The active compounds are applied as a dry seed dressing. This is prepared by extending the respective active compound or the active compound combination with ground minerals to give a finely pulverulent mixture which ensures uniform distribution on the seed surface.
(§7) To dress the seed, the infected seed together with the seed dressing is shaken for 3 minutes in a sealed glass flask.
2×100 corns of wheat are sown at a depth of 1 cm in standard soil and cultivated in a greenhouse at a temperature of about 18° C. and a relative atmospheric humidity of about 95% in seed trays which receive a light regimen of 15 hours per day.
(§8) About 3 weeks after sowing, the plants are evaluated for symptoms. 0% means an efficacy which corresponds to that of the control, whereas an efficacy of 100% means that no infection is observed.

[4] = test system: Rhizoctonia solani; assay: Rhizoctonia solani test (cotton)/seed treatment; settings: dry seed dressing, single active compound, application rate 25 g/ha, evaluation after 8 days
Procedure: Rhizoctonia solani Test (Cotton)/Seed Treatment
as §6, §7
2×50 corns of seed are sown at a depth of 2 cm in standard soil infected with Rhizoctonia solani, and the seeds are cultivated in a greenhouse at a temperature of about 22° C. in seed trays which receive a light regimen of 15 hours per day.
Evaluation is carried out after 8 days. 0% means an efficacy which corresponds to that of the control, whereas an efficacy of 100% means that no infection is observed.

[5] = test system: Erysiphe graminis f. sp. hordei; assay: Erysiphe test (barley)/curative; settings: curative, single active compound, application rate 25 g/ha, evaluation 7 days after inoculation
Procedure: Erysiphe Test (Barley)/Curative
as §2, §3
To test for curative activity, young plants are dusted with spores of Erysiphe graminis f. sp. hordei. 48 hours after the inoculation, the plants are sprayed with the active compound preparation at the stated application rate.
(§9) The plants are placed in a greenhouse at a temperature of about 20° C. and a relative atmospheric humidity of about 80% to promote the development of mildew pustules.
as §5

[6] = test system: Leptosphaeria nodorum; assay: Leptosphaeria nodorum test (wheat)/protective; settings: protective, single active compound, application rate 25 g/ha, 10 days after inoculation
Procedure: Leptosphaeria nodorum Test (Wheat)/Protective
as §2, §3
(§10) To test for protective activity, young plants are sprayed with the active compound preparation at the stated application rate.
After the spray coating has dried on, the plants are sprayed with a spore suspension of Leptosphaeria nodorum. The plants remain in an incubation cabin at 20° C. and 100% relative atmospheric humidity for 48 hours.
The plants are then placed in a greenhouse at a temperature of about 15° C. and a relative atmospheric humidity of about 80%.
(§11) Evaluation is carried out 10 days after the inoculation. 0% means an efficacy which corresponds to that of the control, whereas an efficacy of 100% means that no infection is observed.

[7] = test system: Puccinia recondita; assay: Puccinia test (wheat)/protective; settings: protective, single active compound, application rate 25 g/ha, 10 days after inoculation
Procedure: Puccinia Test (Wheat)/Protective
as §2, §3
To test for protective activity, young plants are inoculated with a spore suspension of Puccinia recondita in a 0.1% strength aqueous agar solution. After the spray coating had dried on, the plants are sprayed with the active compound preparation at the stated application rate.
The plants remain in an incubation cabin at 20° C. and 100% relative atmospheric humidity for 24 hours.
The plants are then placed in a greenhouse at a temperature of about 20° C. and a relative atmospheric humidity of about 80% to promote the development of rust pustules.
as §11

[8] = test system: Fusarium nivale; assay: Fusarium nivale test (triticale)/seed treatment; settings: dry seed dressing, single active compound, about 3 weeks after sowing
Procedure: Fusarium nivale Test (Triticale)/Seed Treatment
as §6, §7
2×100 corns of wheat are sown at a depth of 1 cm in standard soil and cultivated in a greenhouse at a temperature of about 10° C. and a relative atmospheric humidity of about 95% in seed trays which receive a light regimen of 15 hours per day.
as §8

[9] = test system: Erysiphe graminis f. sp. tritici; assay: Erysiphe test (wheat)/protective; settings: protective, single active compound, application rate 6.25 g/ha, 7 days after inoculation
Procedure: Erysiphe Test (Wheat)/Protective
as §2, §3, §10
After the spray coating has dried on, the plants are dusted with spores of Erysiphe graminis f. sp. tritici.
as §4, §5

[10] = test system: Venturia inaequalis; assay: Venturia test (apple)/protective; settings: protective, single active compound, application rate 1 g/ha, evaluation 12 days after inoculation
Procedure: Venturia Test (Apple)/Protective
as §1, §3
To test for protective activity, young plants are sprayed with the active compound preparation at the stated application rate. After the spray coating has dried on, the plants are inoculated with an aqueous konidia suspension of the causative organism of apple scab Venturia inaequalis and then remain in an incubation cabin at about 20° C. and 100% relative atmospheric humidity for one day.
The plants are then placed in a greenhouse at about 21° C. and a relative atmospheric humidity of about 90%.
Evaluation is carried out 12 days after the inoculation. 0% means an efficacy which corresponds to that of the control, whereas an efficacy of 100% means that no infection is observed.

[11] = test system: Erysiphe graminis f. sp. hordei; assay: Erysiphe test (barley)/protective; settings: protective per Example 4 (table title prints curative), single active compound, application rate 25 g/ha, 7 days after inoculation
Procedure: Erysiphe Test (Barley)/Protective
as §2, §3, §10
After the spray coating has dried on, the plants are dusted with spores of Erysiphe graminis f. sp. hordei.
as §9, §5

[12] = Podosphaera fuliginea, 240 h, cucumber, protective, single active compound, application rate 25 g/ha, evaluation 10 days after inoculation, read-out: Efficacy in %
[13] = Podosphaera fuliginea, 240 h, cucumber, protective, single active compound, application rate 12.5 g/ha, evaluation 10 days after inoculation, read-out: Efficacy in %
[14] = Podosphaera fuliginea, 240 h, cucumber, protective, single active compound, evaluation 10 days after inoculation, read-out: Efficacy in %
[15] = application rate 75 g/ha as printed

O=C1c2ccccc2C(=O)N1SC(Cl)(Cl)Cl [(XIX)]
pest or weed control at 25 g/ha [1, 12]: 0%

zinc propylene-1,2-bis-(dithiocarbamate) [(VI)]
Efficacy in % ([1]; cucumber, protective, single active compound, application rate 25 g/ha, evaluation 10 days after inoculation): 0%

COc1ccc(C(=CC(=O)N2CCOCC2)c2ccc(Cl)cc2)cc1OC [(XVIII)]
pest or weed control at 12.5 g/ha [1, 13]: 0%

Cc1cc(C2CC2)nc(Nc2ccccc2)n1 [(XVIb)]
pest or weed control at 25 g/ha [1, 12]: 0%
Efficacy in % ([2]; application rate 12.5 g/ha): 0%

CCCOC(=O)NC(C(=O)NC(C)c1ccc(C)cc1)C(C)C (centres unmarked) [(IX)]
pest or weed control at 12.5 g/ha [1, 13]: 13%

CC1(C(=O)Nc2ccc(O)c(Cl)c2Cl)CCCCC1 [(VIII)]
pest or weed control at 12.5 g/ha [1, 13]: 0%

CC(C)(C)C(O)C(Oc1ccc(-c2ccccc2)cc1)n1cncn1 (centres unmarked) [(IIc), 1-(4-phenyl-phenoxy)-3,3-dimethyl-1-(1,2,4-triazol-1-yl)-butan-2-ol]
pest or weed control at 2.5 g/ha [1, 14]: 0%
Efficacy in % [3]: 27%
Efficacy in % [4]: 0%

CO/N=C(\C1=NOCCO1)c1ccccc1Oc1ncnc(Oc2ccccc2Cl)c1F [(XIV)]
pest or weed control at 2.5 g/ha [1, 14]: 22%
Efficacy in % [5]: 75%
Efficacy in % ([2]; application rate 12.5 g/ha): 0%
Efficacy in % [6]: 87%
Efficacy in % [7]: 94%
Efficacy in % [8, 15]: 94%

N#Cc1c[nH]cc1-c1cccc2c1OC(F)(F)O2 [(XXIb), 4-(2,2-difluoro-1,3-benzodioxol-7-yl)-1H-pyrrole-3-carbonitrile]
Efficacy in % ([2]; application rate 6.25 g/ha): 38%

CSC(=O)c1cccc2nnsc12 [(X)]
pest or weed control at 2.5 g/ha [1, 14]: 0%

Cc1cc(C)nc(Nc2ccccc2)n1 [(XVIa), pyrimethanil]
pest or weed control at 25 g/ha [1, 12]: 0%

CCCN(CC)CC1COC2(CCC(C(C)(C)C)CC2)O1 (centres unmarked) [(XI), 8-t-butyl-2-(N-ethyl-N-n-propyl-amino)-methyl-1,4-dioxaspiro-[5,4]-decane]
Efficacy in % ([1]; cucumber, protective, single active compound, application rate 12.5 g/ha, evaluation 10 days after inoculation): 0%
Efficacy in % ([2]; application rate 12.5 g/ha): 0%

CC(C)(C)C(=O)C(Oc1ccc(Cl)cc1)n1cncn1 (centres unmarked) [(IIa), 1-(4-chloro-phenoxy)-3,3-dimethyl-1-(1,2,4-triazol-1-yl)-butane-2-one]
pest or weed control at 2.5 g/ha [1, 14]: 37%

CC(C)(C)C(O)(CCc1ccc(Cl)cc1)Cn1cncn1 (centres unmarked) [(III)]
pest or weed control at 2.5 g/ha [1, 14]: 50%
Efficacy in % ([2]; application rate 25 g/ha): 88%
Efficacy in % [9]: 57%
Efficacy in % [4]: 27%

CCC(C)(NC(=O)c1cc(Cl)c(C)c(Cl)c1)C(=O)CCl (centres unmarked) [(XXIV)]
pest or weed control at 12.5 g/ha [1, 13]: 0%

OC(Cc1ccccc1Cl)(Cn1nc[nH]c1=S)C1(Cl)CC1 (centres unmarked) [(I), 2-[2-(1-chlorocyclopropyl)-3-(2-chlorophenyl)-2-hydroxypropyl]-2,4-dihydro-[1,2,4]-triazole-3-thione]
pest or weed control at 0.5 g/ha ([1]; Podosphaera fuliginea, 240 h, cucumber, protective, single active compound, application rate 0.5 g/ha, evaluation 10 days after inoculation, read-out: Efficacy in %): 0%
pest or weed control at 2.5 g/ha [1, 14]: 21%
Efficacy in % [10]: 1%
Efficacy in % [5]: 81%
Efficacy in % [11]: 83%
Efficacy in % ([2]; application rate 6.25 g/ha): 25%
Efficacy in % ([2]; application rate 12.5 g/ha): 50%
Efficacy in % ([2]; application rate 25 g/ha): 75%
Efficacy in % [9]: 57%
Efficacy in % [6]: 62%
Efficacy in % [7]: 38%
Efficacy in % [3]: 32%
Efficacy in % ([8]; application rate 25 g/ha): 0%
Efficacy in % [8, 15]: 14%
Efficacy in % [4]: 19%

N#Cc1c[nH]cc1-c1cccc(Cl)c1Cl [(XXIa), 4-(2,3-dichlorophenyl)-pyrrole-3-carbonitrile]
Efficacy in % ([8]; application rate 25 g/ha): 0%

Cc1ccc(N(SC(F)(Cl)Cl)S(=O)(=O)N(C)C)cc1 [(IVb)]
pest or weed control at 25 g/ha [1, 12]: 0%

CC(C)(C)C(O)C(Oc1ccc(Cl)cc1)n1cncn1 (centres unmarked) [(IIb), 1-(4-chloro-phenoxy)-3,3-dimethyl-1-(1,2,4-triazol-1-yl)-butan-2-ol]
pest or weed control at 2.5 g/ha [1, 14]: 80%
Efficacy in % ([2]; application rate 25 g/ha): 81%

CO/C=C(/C(=O)OC)c1ccccc1Oc1cc(Oc2ccccc2C#N)ncn1 [(XII)]
pest or weed control at 2.5 g/ha [1, 14]: 59%
Efficacy in % [11]: 92%

CN(C)S(=O)(=O)N(SC(F)(Cl)Cl)c1ccccc1 [(IVa)]
pest or weed control at 25 g/ha ([1]; Podosphaera fuliginea, 240 h, read-out: Efficacy in %): 0%

N#Cc1c(Cl)c(Cl)c(Cl)c(C#N)c1Cl [(XVII)]
pest or weed control at 25 g/ha [1, 12]: 0%

CO/N=C(/C(=O)OC)c1ccccc1COc1ccccc1C [(XIII)]
pest or weed control at 2.5 g/ha [1, 14]: 57%
Efficacy in % ([2]; application rate 6.25 g/ha): 94%

CC12CC1(C)C(=O)N(c1cc(Cl)cc(Cl)c1)C2=O (centres unmarked) [(XV)]
pest or weed control at 12.5 g/ha [1, 13]: 0%
